Laboratory results taken from US8410152B2 (Max-Planck-Gesellschaft zur Forderung der Wissenschaften e. …, priority 2006, dated 2013).
Read-outs that look alike come from different tables or passages of the source.

Columns and labels:
tau construct K19 = tau construct K19 (Homo sapiens, UniProt P10636); experiment: Thioflavine S (ThS) assay for aggregation of tau; format: biochemical
Description: Thioflavine S (ThS) Assay for aggregation of tau: 10 μM of the tau construct K19 were incubated with compounds in a concentration range from 1 nM up to 200 μM in the presence of 2.5 μM heparin in 50 mM NH4Ac buffer over night at 37° C. After addition of 20 μM ThS the signal was measured at 521 nm (emission) at an excitation wavelength of 440 nm. The results of this assay are presented in the IC50 column and DC50 column of Table 1 below.

N2a/K18ΔK280 cells = experiment: Tau aggregation and inhibition assay in cells (ThS staining); format: cell-based; settings: for inhibition at 10 µM: 120 h, read-out: Inhibition in cells; for Inhibition in cells (result in words: cytotoxicity): compound 10 μM
Description: Selection of an N2a, Tet-On, G418-resistant cell line: N2a cells were cotransfected with both the pUHD172-1 plasmid (encoding the rtTA, obtained from H. Bujard, Heidelberg) and pEU-1 plasmid (encoding G418 resistance, a derivative of pRc/CMV, Invitrogen) (ratio 20:1; 1 μg/well of 6-well plates) using the DOTAP transfection reagent (Roche, Basel, CH). The cells were cultured in Eagle's Minimum Essential Medium (MEM) supplemented with 10% defined fetal bovine serum and subjected to G418 (600 μg/ml) and selection. The cells were fed with fresh media every 4 days for 3-4 weeks when single colonies appeared. Clones were tested for the induction level by transient transfection of pUHG 16-3 plasmid and the induction of β-galactosidase was measured.
Generation of inducible Tet-On cell lines: The DNA fragments encoding the appropriate tau constructs (K18WT, K18ΔK280, K18/ΔK280/PP) were inserted into the bidirectional vector pBI-5 between ClaI and SalI restriction sites (pBI-5 is an unpublished derivative of pBI-2, Baron et al., 1995). The pBI-5/K18-derived plasmids with pX343 (plasmid encoding the hygromycin resistance) were used for cotransfection of N2a/Tet-On, G418-resistant cells with the aid of DOTAP (20:1 plasmid ratio; 1 μg/well of 6-well plates). The cells were seeded at 4×10^5 cells per well. On the following day cells were transferred to 100-mm dishes and selected with 100 μg/ml of hygromycin and 600 μg/ml of G418. Clonal cell lines were screened for the inducible expression of K18 derivatives by measuring luciferase activity with the luciferase assay and immunofluorescence for tau protein with the polyclonal pan-tau antibody K9JA.
Induction of K18-derivatives in Tet-On N2a cells: The inducible N2a/K18-derivatives cells were cultured in MEM medium supplemented with 10% fetal calf serum, 2 mM glutamine and 0.1% nonessential amino acids. The expression of K18 constructs was induced by adding 1 μg doxycyclin (Dox) per 1 ml medium. The induction was continued for 7-11 days, the medium was changed 3 times (always complemented with doxycyclin). For tau solubility assays the cells were collected by pelleting during centrifugation at 1000×g for 5 min. The levels and solubility of tau K18/ΔK280 were determined following Greenberg and Davies (1990). The cells were homogenized (DIAX900, Heidolph, Schwabach, Germany) in 10 vol (w/v) of buffer consisting of 10 mM Tris-HCl (pH 7.4), 0.8 M NaCl, 1 mM EGTA, and 10% sucrose. The homogenate was spun for 20 min at 20000×g, and the supernatant was retained. The pellet was re-homogenized in 5 vol of homogenization buffer and re-centrifuged. Both supernatants were combined, brought to 1% N-laurylsarkosinate (w/v) and incubated for 1 hr at room temperature while shaking, followed by centrifugation at 100 000×g for 1 hr. The sarkosyl-insoluble pellets were resuspended in 50 mM Tris-HCl (pH 7.4), 0.5 ml per 1 g of starting material. The supernatant and sarkosyl-insoluble pellet samples were analyzed by Western blotting. The amount of material loaded for supernatant and sarkosyl-insoluble pellet represented about 0.5% and 15% of the total material present in the supernatant and pellet respectively (the ratio between supernatant and sarkosyl insoluble pellet was always 1:30). For quantification of tau levels in each fraction, the Western blots were probed with pan-tau antibody K9JA and analyzed by densitometry (LAS 3000 and AIDA software, Raytest, Straubenhardt, Germany).
Quantitation of tau aggregation in cells by Thioflavin S (ThS) staining: Tet-On inducible undifferentiated N2a cells were treated with 1 μg/ml doxycyclin for 5, 7 or 9 days in a culture dish. After that the cells were trypsinized and transferred to coverslips and incubated overnight. The cells on the coverslips were fixed with 4% paraformaldehyde in PBS for 15 min, then permeabilized with 80% MeOH for 6 min at −20° C., and incubated with 0.1% Thioflavin S for 5 min and washed three times in ethanol (50%). […]

uninduced N2A cells = format: cell-based; settings: cell death as percent of LDH released into medium vs total LDH, compound 10 μM
Description: Neurotoxicity assay: Neurotoxicity was assessed using an LDH (lactate dehydrogenase) assay kit (Roche, Mannheim, Germany) according to the manufacturer's specifications. In the viability assay the aggregation inhibitor compound was added at a final concentration of 10 μM to uninduced N2A cells. The activity of LDH was measured spectrophotometrically at 492 nm. Cell death was calculated as percent of LDH released into medium, compared to total LDH obtained after total cell lysis.

[1] = 10 μM tau construct K19, 2.5 μM heparin, ThS fluorescence, read-out: DC50
[2] = 10 μM tau construct K19, 2.5 μM heparin, over night at 37° C., ThS fluorescence, read-out: ID50 (the source's name)
[3] = N2a/K18ΔK280 cells, compound 10 μM with doxycyclin, 5 days, ThS-positive cells scored
[4] = 10 μM tau construct K19, 2.5 μM heparin, ThS fluorescence

Chain of tau construct K19 (P10636 with tags, fused parts or gaps isoform P10636-2 limits assumed): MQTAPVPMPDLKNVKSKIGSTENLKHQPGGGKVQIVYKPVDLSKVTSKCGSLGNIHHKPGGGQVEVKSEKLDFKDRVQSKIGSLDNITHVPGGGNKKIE

SMILES	DC50 (tau construct K19; [1])	IC50 (tau construct K19; [2])	inhibition at 10 µM (N2a/K18ΔK280 cells; [3])	LDH (uninduced N2A cells)	inhibition at 10 µM (N2a/K18ΔK280 cells)	Inhibition in cells (result in words: cytotoxicity) (N2a/K18ΔK280 cells; N2a/K18ΔK280 cells, 5 days)	IC50 (tau construct K19)	DC50 (tau construct K19; [4])
O=C(NNc1nc(-c2ccc([N+](=O)[O-])cc2)cs1)c1ccc(-c2ccccc2)cc1 [Comp. 7, N′-[4-(4-nitrophenyl)-1,3-thiazol-2-yl]-1,1′-biphenyl-4-carbohydrazide]	1.2 µM	1.3 µM	69.7%	5.0%				
O=C(NNc1nc(-c2ccc(N3CCCC3)cc2)cs1)c1ccc(-c2ccccc2)cc1 [Comp. 9, N′-[4-(4-pyrrolidin-1-ylphenyl)-1,3-thiazol-2-yl]-1,1′-biphenyl-4-carbohydrazide]	1 µM	1.9 µM	60.5%	6.2%				
O=C(NNc1nc(-c2ccc(N3CCCC3)cc2)cs1)c1cccnc1 [Comp. 10, N′-[4-(4-pyrrolidin-1-ylphenyl)-1,3-thiazol-2-yl]nicotinohydrazide]	1.4 µM	2 µM	62.5%	12.5%				
O=C(NNc1nc(-c2ccc([N+](=O)[O-])cc2)cs1)c1ccc2c(c1)OCO2 [Comp. 13, N′-[4-(4-nitrophenyl)-1,3-thiazol-2-yl]-1,3-benzodioxole-5-carbohydrazide]	0.7 µM	3.9 µM		9.3%	66.1%			
COc1ccc(-c2csc(NNC(=O)N3CCCCC3)n2)cc1 [Comp. 49, N′-[4-(4-methoxyphenyl)-1,3-thiazol-2-yl]piperidine-1-carbohydrazide]	> 200 µM	> 200 µM		−3.9%		Cytotoxic at 5 d		
O=C(NNc1nc(-c2ccc3ccccc3c2)cs1)c1ccc(C(F)(F)F)cc1 [Comp. 50, N′-[4-(2-naphthyl)-1,3-thiazol-2-yl]-4-(trifluoromethyl)benzohydrazide]			52.6%	−7.6%				
COc1cc(-c2csc(NNC(=O)c3ccc(C(F)(F)F)cc3)n2)cc(OC)c1O [Comp. 51, N′-[4-(4-hydroxy-3,5-dimethoxyphenyl)-1,3-thiazol-2-yl]-4-(trifluoromethyl)benzohydrazide]	> 200 µM	189 µM	42.6%	−10.4%				
O=C(NNc1nc2c(s1)Cc1ccccc1-2)c1cc2ccccc2[nH]1 [Comp. 52, N′-8H-indeno[1,2-d][1,3]thiazol-2-yl-1H-indole-2-carbohydrazide]				−9.6%	53.2%		49.4 µM	89.1 µM
COc1cc(-c2csc(NNC(=O)c3cc4ccccc4[nH]3)n2)cc(OC)c1O [Comp. 53, N′-[4-(4-hydroxy-3,5-dimethoxyphenyl)-1,3-thiazol-2-yl]-1H-indole-2-carbohydrazide]				−7.3%	49.9%		171 µM	> 200 µM
O=C(NNc1nc(C2C3CC4CC(C3)CC2C4)cs1)c1cc2ccccc2[nH]1 (stereo not drawn) [Comp. 54, N′-[4-(2-adamantyl)-1,3-thiazol-2-yl]-1H-indole-2-carbohydrazide]				−2.1%	56.6%		> 200 µM	> 200 µM
O=C(NNc1nc(-c2ccc(Cl)cc2)cs1)c1cc2ccccc2[nH]1 [Comp. 55, N′-[4-(4-chlorophenyl)-1,3-thiazol-2-yl]-1H-indole-2-carbohydrazide]				−1.1%	54%		88.9 µM	105 µM
CC(C)COc1ccc(-c2csc(NNC(=O)c3cc4ccccc4[nH]3)n2)cc1 [Comp. 56, N′-[4-(4-isobutyloxyphenyl)-1,3-thiazol-2-yl]-1H-indole-2-carbohydrazide]				−0.6%	50.8%		111 µM	> 200 µM
N#Cc1ccc(-c2csc(NNC(=O)c3cc4ccccc4[nH]3)n2)cc1 [Comp. 57, N′-[4-(4-cyanophenyl)-1,3-thiazol-2-yl]-1H-indole-2-carbohydrazide]				2.7%	49.3%		> 200 µM	> 200 µM
O=C(NNc1nc(-c2ccc(-c3ccccc3)cc2)cs1)c1cc2ccccc2[nH]1 [Comp. 58, N′-[4-(1,1′-biphenyl-4-yl)-1,3-thiazol-2-yl]-1H-indole-2-carbohydrazide]				54.5%		Cytotoxic at 5 d	98.9 µM	> 200 µM
O=C(NNc1nc(-c2ccc3ccccc3c2)cs1)c1cc2ccccc2[nH]1 [Comp. 59, N′-[4-(2-naphthyl)-1,3-thiazol-2-yl]-1H-indole-2-carbohydrazide]				1.9%		Cytotoxic at 5 d	130 µM	138 µM
O=C(NNc1nc(-c2ccccc2Br)cs1)c1cc2ccccc2[nH]1 [Comp. 60, N′-[4-(2-bromophenyl)-1,3-thiazol-2-yl]-1H-indole-2-carbohydrazide]				0.1%	41.5%		> 200 µM	> 200 µM
Cc1sc(NNC(=O)c2ccc(-c3ccccc3)cc2)nc1-c1ccc([N+](=O)[O-])cc1 [Comp. 61, N′-[5-methyl-4-(4-nitrophenyl)-1,3-thiazol-2-yl]-1,1′-biphenyl-4-carbohydrazide]	13.6 µM	9.8 µM	62.6%	16.6%				
Cc1nc(NNC(=O)c2ccc3[nH]cnc3c2)sc1-c1ccc(Br)cc1 [Comp. 62, N′-[5-(4-bromophenyl)-4-methyl-1,3-thiazol-2-yl]-1H-benzimidazole-5-carbohydrazide]	38.1 µM	33.5 µM		−2.8%	68.3%			
Cc1nc(NNC(=O)c2ccc(F)cc2)sc1-c1ccc(Br)cc1 [Comp. 63, N′-[5-(4-bromophenyl)-4-methyl-1,3-thiazol-2-yl]-4-fluorobenzohydrazide]	15.9 µM	13.6 µM		1.2%	50%			
COc1ccc(C(=O)NNc2nc(C3C4CC5CC(C4)CC3C5)cs2)cc1 (stereo not drawn) [Comp. 65, N′-[4-(2-adamantyl)-1,3-thiazol-2-yl]-4-mathoxybenzohydrazide]	> 200 µM	112 µM	42.1%	39.4%				
